# In patent US10844013B2, “Phenyl amino piperidine mTORC inhibitors and uses thereof” (Navitor Pharmaceuticals, Inc., priority 2016, dated 2020):
# Like-named read-outs stand apart in the source and are kept apart here.
# What was measured:
# [1] = tested on: pS6K1 (p-p70 S6 Kinase (Thr389)) in MCF-7 cells; experiment: AlphaLISA Ultra pS6K1 assay; type: cell-based; conditions: 2 hours compound incubation
# Summary of the method: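 MCF-7 cells seeded 20–24 h, medium refreshed 2 h, then treated 2 h with compound (0.5% DMSO final). Lysates probed for Thr389-phosphorylated p70 S6K by AlphaLISA Ultra, 2 h acceptor then 2 h donor bead incubation, read on a multimode reader.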
# [2] = tested on: pAKT (p-Akt 1/2/3 (Ser473)) in MCF-7 cells; experiment: AlphaLISA Ultra pAKT assay; type: cell-based
# Summary of the method: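 MCF-7 cells seeded 20-24 h, medium refreshed for 2 h, then treated with compounds for 2 h at 0.5% final DMSO. Lysates frozen at −80 °C, then pAKT detected by AlphaLISA with acceptor and donor beads, 2 h each.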
# [3] = Homo sapiens, MCF7, 2 hours compound incubation
"IC50 ([1]; Homo sapiens, MCF7, 2 h) [nM]","IC50 [2, 3] [nM]",Structure (SMILES),IC50 ([1]; read-out: pS6K1 in MCF7: IC50) [nM],"IC50 ([2]; 2 hours compound incubation, read-out: pAKT in MCF7: IC50) [nM]"
1000 to 3000,> 10000,"Cc1cc(C)c(C(=O)N2CCN(c3cccnn3)[C@H](CO)C2)c(C)c1NC1CCN(c2cccnn2)CC1 [I-160, [(2S)-1-(pyridazin-3-yl)-4-(2,4,6-trimethyl-3-{[1-(pyridazin-3-yl)piperidin-4-yl]amino}benzoyl)piperazin-2-yl]MeOH]",–,–
10 to 1000,> 10000,"Cc1cc(C)c(C(=O)N2CCN(c3ccc(F)cn3)[C@H](CO)C2)c(C)c1NC1CCN(c2cccnn2)CC1 [I-161, [(2S)-1-(5-fluoropyridin-2-yl)-4-(2,4,6-trimethyl-3-{[1-(pyridazin-3-yl)piperidin-4-yl]amino}benzoyl)piperazin-2-yl]MeOH]",–,–
10 to 1000,> 10000,"Cc1cc(C)c(C(=O)N2CCN(c3ccc(F)cc3)C(C(N)=O)C2)c(C)c1NC1CCN(c2cccnn2)CC1 (stereo not shown) [I-162, 1-(4-fluorophenyl)-4-(2,4,6-trimethyl-3-{[1-(pyridazin-3-yl)piperidin-4-yl]amino}benzoyl) piperazine-2-carboxamide]",–,–
10 to 1000,> 10000,"Cc1cc(C)c(C(=O)N2CCN(c3ccccc3)[C@H](C(N)=O)C2)c(C)c1NC1CCN(c2cccnn2)CC1 [I-164, (2S)-1-Phenyl-4-(2,4,6-trimethyl-3-{[1-(pyridazin-3-yl)piperidin-4-yl]amino}benzoyl)piperazine-2-carboxamide]",–,–

# Continued, compound first:
Structure (SMILES),"IC50 ([1]; Homo sapiens, MCF7, 2 h) [nM]","IC50 [2, 3] [nM]",IC50 ([1]; read-out: pS6K1 in MCF7: IC50) [nM],"IC50 ([2]; 2 hours compound incubation, read-out: pAKT in MCF7: IC50) [nM]"
"Cc1nc(C)c(C(=O)N2CCN(c3ccccc3)[C@H](CO)C2)c(C)c1NC1CCN(c2c(F)cccc2C#N)CC1 [I-153, 3-fluoro-2-[4-({5-[(3S)-3-(hydroxy-methyl)-4-phenyl-piperazine-1-carbonyl]-2,4,6-trimethyl-pyridin-3-yl}amino)piperidin-1-yl] benzonitrile]",10 to 1000,> 10000,–,–
"Cc1nc(C)c(C(=O)N2CCN(c3ccccc3)[C@H](CO)C2)c(C)c1NC1CCN(c2ccc(F)cc2C#N)CC1 [I-154, 5-fluoro-2-[4-({5-[(3S)-3-(hydroxy-methyl)-4-phenyl-piperazine-1-carbonyl]-2,4,6-trimethyl-pyridin-3-yl}amino)piperidin-1-yl] benzonitrile]",1000 to 3000,> 10000,–,–
"Cc1nc(C)c(C(=O)N2CCN(c3ccccc3)[C@H](CO)C2)c(C)c1NC1CCN(c2ccccn2)CC1 [I-155, [(2S)-1-phenyl-4-(2,4,6-trimethyl-5-{[1-(pyridin-2-yl)piperidin-4-yl]amino}pyridine-3-carbonyl)piperazin-2-yl]MeOH]",1000 to 3000,> 10000,–,–
"Cc1cc(C)c(C(=O)N2CCN(c3ccccn3)[C@H](CO)C2)c(C)c1NC1CCN(c2ccccn2)CC1 [I-156, [(2S)-1-(pyridin-2-yl)-4-(2,4,6-trimethyl-3-{[1-(pyridin-2-yl)piperidin-4-yl]amino}benzoyl)piperazin-2-yl]MeOH]",10 to 1000,> 10000,–,–
"Cc1cc(C)c(C(=O)N2CCN(c3cccnn3)[C@H](CO)C2)c(C)c1NC1CCN(c2ccccn2)CC1 [I-157, [(2S)-1-(pyridazin-3-yl)-4-(2,4,6-trimethyl-3-{[1-(pyridin-2-yl)piperidin-4-yl]amino}benzoyl)piperazin-2-yl]MeOH]",10 to 1000,> 10000,–,–
"Cc1cc(C)c(C(=O)N2CCN(c3ccccc3)[C@H](CO)C2)c(C)c1NC1CCN(c2cccnn2)CC1 [I-158, [(2S)-1-phenyl-4-(2,4,6-trimethyl-3-{[1-(pyridazin-3-yl)piperidin-4-yl]amino}benzoyl)piperazin-2-yl]MeOH]",10 to 1000,> 10000,–,–
"Cc1nc(C)c(C(=O)N2CCN(c3ccccc3)[C@H](CO)C2)c(C)c1NC1CCN(c2ncccc2Cl)CC1 [I-165, [(2S)-4-(5-{[1-(3-chloropyridin-2-yl)piperidin-4-yl]amino}-2,4,6-trimethyl-pyridine-3-carbonyl)-1-phenyl-piperazin-2-yl]MeOH]",–,–,10 to 1000,> 10000
